Results as given in PubChem BioAssay AID1963981 (Molecular Pharmacology Branch, DTP, NCI, 2024).

System: 354836-022-R-J1-PDC multicell spheroid viability
Assay: Anticancer human tumor 354836-022-R-J1-PDC patient-derived head and neck squamous cell carcinoma cell line growth inhibition [PI3K]
Conditions: for IC50: curve of first compound; for viability, T/C: stronger effect = lower value; active = viability on the fitted dose curve at most 10% of control; inactive = the rest
Outline: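 Targeted small molecules plus PI3K inhibitors, half-log dose series from Cmax (default top 10 microM), were applied to heterotypic spheroids of cancer cells with HUVEC and MSCs. Viability indicated growth inhibition.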
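Also: spheroids exposed to agents for seven days before the viability read.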

CC1(C)CCC(CN2CCN(c3ccc(C(=O)NS(=O)(=O)c4ccc(NCC5CCOCC5)c([N+](=O)[O-])c4)c(Oc4cnc5[nH]ccc5c4)c3)CC2)=C(c2ccc(Cl)cc2)C1 + CC(Nc1ccc2c(c1)OCCn1cc(N3C(=O)OCC3C(F)F)nc1-2)C(N)=O
4 µM: IC50 (second compound 0.01 µM)
2.32 µM: IC50 (second compound 1 µM)
inactive: viability, T/C (second compound 0.00316 µM, first compound 0.0316 µM) 96.5% | viability, T/C (second compound 0.00316 µM, first compound 0.1 µM) 96.9% | viability, T/C (second compound 0.00316 µM, first compound 0.316 µM) 87.7% | viability, T/C (second compound 0.00316 µM, first compound 1 µM) 70.5% | viability, T/C (second compound 0.00316 µM, first compound 3.16 µM) 74.6% | viability, T/C (second compound 0.01 µM, first compound 0.0316 µM) 106% | viability, T/C (second compound 0.01 µM, first compound 0.1 µM) 91% | viability, T/C (second compound 0.01 µM, first compound 0.316 µM) 95.2% | viability, T/C (second compound 0.01 µM, first compound 1 µM) 81.1% | viability, T/C (second compound 0.01 µM, first compound 3.16 µM) 62.8% | viability, T/C (second compound 0.01 µM, first compound 10 µM) 9.3% | viability, T/C (second compound 0.0316 µM, first compound 0.0316 µM) 89.1% | viability, T/C (second compound 0.0316 µM, first compound 0.1 µM) 103% | viability, T/C (second compound 0.0316 µM, first compound 0.316 µM) 92.3% | viability, T/C (second compound 0.0316 µM, first compound 1 µM) 99.5% | viability, T/C (second compound 0.0316 µM, first compound 3.16 µM) 54% | viability, T/C (second compound 0.1 µM, first compound 0.0316 µM) 81.4% | viability, T/C (second compound 0.1 µM, first compound 0.1 µM) 81.6% | viability, T/C (second compound 0.1 µM, first compound 0.316 µM) 94.2% | viability, T/C (second compound 0.1 µM, first compound 1 µM) 85.5% | viability, T/C (second compound 0.1 µM, first compound 3.16 µM) 63.4% | viability, T/C (second compound 0.1 µM, first compound 10 µM) 11.4% | viability, T/C (second compound 0.316 µM, first compound 0.0316 µM) 71% | viability, T/C (second compound 0.316 µM, first compound 0.1 µM) 69.2% | viability, T/C (second compound 0.316 µM, first compound 0.316 µM) 72.8% | viability, T/C (second compound 0.316 µM, first compound 1 µM) 69.8% | viability, T/C (second compound 0.316 µM, first compound 3.16 µM) 52% | viability, T/C (second compound 0.316 µM, first compound 10 µM) 10.8% | viability, T/C (second compound 1 µM, first compound 0.0316 µM) 62% | viability, T/C (second compound 1 µM, first compound 0.1 µM) 56.2% | viability, T/C (second compound 1 µM, first compound 0.316 µM) 50.2% | viability, T/C (second compound 1 µM, first compound 1 µM) 64.7% | viability, T/C (second compound 1 µM, first compound 3.16 µM) 47% | viability, T/C (second compound 1 µM, first compound 10 µM) 10.2%
4.39 µM: IC50 (second compound 0.00316 µM)
4.25 µM: IC50 (second compound 0.1 µM)
active: viability, T/C (second compound 0.00316 µM, first compound 10 µM) 8.4% | viability, T/C (second compound 0.0316 µM, first compound 10 µM) 8.28%
3.35 µM: IC50 (second compound 0.316 µM)
3.5 µM: IC50 (second compound 0.0316 µM)
